{"source": "ChEMBL document CHEMBL1156376", "about": "“Clathsterol, a novel anti-HIV-1 RT sulfated sterol from the sponge Clathria species” (J Nat Prod, 2001)", "molecular_target": "Human immunodeficiency virus type 1 reverse transcriptase (Human immunodeficiency virus 1) (UniProt Q72547)", "experiment": "Inhibition of HIV1 reverse transcriptase at 10 uM", "note": "The source made the active and inactive calls. No cut-off for these calls is given here.", "data": [{"compound": "CCCC(=O)OC(C(CC)C(C)C)C(OC(=O)CCC)[C@@H](C)[C@H]1[C@@H](O)[C@H](OC(C)=O)[C@H]2[C@@H]3CCC4C[C@H](OS(=O)(=O)O)[C@@H](OS(=O)(=O)O)C[C@]4(C)[C@H]3CC[C@@]21C", "note": "(stereo partly specified)", "values": [{"measurement": "Activity", "value": "Active"}]}]}
